Key:
[1] = molecular target: PI3K (p110β/p85α) (h) (Homo sapiens (Human), UniProt P42338); experiment: PI3K (p110β/p85α) (h) non-radioactive HTRF kinase assay; format: biochemical
Experimental: (§1) PI3K (p110β/p85α) (h) is incubated in assay buffer containing 10 μM phosphatidylinositol-4,5-bisphosphate and MgATP (concentration as required). The reaction is initiated by the addition of the MgATP mix. After incubation for 30 minutes at room temperature, the reaction is stopped by the addition of stop solution containing EDTA and biotinylated phosphatidylinositol-3,4,5-trisphosphate. Finally, detection buffer is added, which contains europium-labelled anti-GST monoclonal antibody, GST-tagged GRP1 PH domain and streptavidin-allophycocyanin. The plate is then read in timeresolved fluorescence mode and the homogenous time-resolved fluorescence (HTRF) signal is determined according to the formula HTRF=10000×(Em665 nm/Em620 nm).
(§2) The kinase assays described herein were performed at Millipore UK Ltd, Dundee Technology Park, Dundee DD2 1SW, UK.

[2] = tested on: SU-DHL-10; experiment: Cell proliferation assay (CTG), SU-DHL-10; format: cell-based; conditions: Homo sapiens, SU-DHL10, 72 h
Experimental: (§3) • 1. Harvest cells during the logarithmic growth period and count cell number using Count-star. • 2. Adjust cell concentrations to […] with respective culture medium. • 3. Add 90 μL cell suspensions to 96-well plates with the final cell density of 1×10^4 cells/well. (cell concentration will be adjusted according to the data base or density optimization assay.) • 4. The next day, prepare 10× solution (Top working concentration: 10 μM of test article in media with 3.16-fold serial dilutions to achieve 9 dose levels). • 5. Dispense 10 μL drug solution of both test article and reference control in each well (duplicate for each drug concentration) of the plate.

[3] = tested on: CCRF-SB; experiment: Cell proliferation assay (CTG), CCRF-SB; format: cell-based; conditions: Homo sapiens, 72 h
Experimental: as §3

[4] = tested on: PI3K-β (786-O); experiment: p-AKT HTRF assay, PI3K-β in 786-O cells; format: cell-based; conditions: Homo sapiens, 786-0
Experimental: (§4) Cells were incubated at 37° C. in a 5% CO2 atmosphere overnight. […] Medium was then aspirated and 50 μL/well of lysis buffer was added. Plates were shaked for 45 minutes at room temperature and then 16 ul/well of lysate was transferred to 384-well plate. 4 ul/well of premixed antibody was added to the wells. The plate was centrifuged at 1000 rpm at RT for 1 minute and then incubated for 4 hours at 22° C., and Phospho-AKT (ser473) Kit was used for detection.

[5] = tested on: KARPAS-422; experiment: Cell proliferation assay (CTG), KARPAS-422; format: cell-based; conditions: Homo sapiens, 72 h
Experimental: as §3

[6] = molecular target: PI3K (p110α/p85α) (h) (Homo sapiens (Human), UniProt P42336); experiment: PI3K (p110α/p85α) (h) non-radioactive HTRF kinase assay; format: biochemical
Chain of PI3K (p110α/p85α) (h) (P42336 whole entry): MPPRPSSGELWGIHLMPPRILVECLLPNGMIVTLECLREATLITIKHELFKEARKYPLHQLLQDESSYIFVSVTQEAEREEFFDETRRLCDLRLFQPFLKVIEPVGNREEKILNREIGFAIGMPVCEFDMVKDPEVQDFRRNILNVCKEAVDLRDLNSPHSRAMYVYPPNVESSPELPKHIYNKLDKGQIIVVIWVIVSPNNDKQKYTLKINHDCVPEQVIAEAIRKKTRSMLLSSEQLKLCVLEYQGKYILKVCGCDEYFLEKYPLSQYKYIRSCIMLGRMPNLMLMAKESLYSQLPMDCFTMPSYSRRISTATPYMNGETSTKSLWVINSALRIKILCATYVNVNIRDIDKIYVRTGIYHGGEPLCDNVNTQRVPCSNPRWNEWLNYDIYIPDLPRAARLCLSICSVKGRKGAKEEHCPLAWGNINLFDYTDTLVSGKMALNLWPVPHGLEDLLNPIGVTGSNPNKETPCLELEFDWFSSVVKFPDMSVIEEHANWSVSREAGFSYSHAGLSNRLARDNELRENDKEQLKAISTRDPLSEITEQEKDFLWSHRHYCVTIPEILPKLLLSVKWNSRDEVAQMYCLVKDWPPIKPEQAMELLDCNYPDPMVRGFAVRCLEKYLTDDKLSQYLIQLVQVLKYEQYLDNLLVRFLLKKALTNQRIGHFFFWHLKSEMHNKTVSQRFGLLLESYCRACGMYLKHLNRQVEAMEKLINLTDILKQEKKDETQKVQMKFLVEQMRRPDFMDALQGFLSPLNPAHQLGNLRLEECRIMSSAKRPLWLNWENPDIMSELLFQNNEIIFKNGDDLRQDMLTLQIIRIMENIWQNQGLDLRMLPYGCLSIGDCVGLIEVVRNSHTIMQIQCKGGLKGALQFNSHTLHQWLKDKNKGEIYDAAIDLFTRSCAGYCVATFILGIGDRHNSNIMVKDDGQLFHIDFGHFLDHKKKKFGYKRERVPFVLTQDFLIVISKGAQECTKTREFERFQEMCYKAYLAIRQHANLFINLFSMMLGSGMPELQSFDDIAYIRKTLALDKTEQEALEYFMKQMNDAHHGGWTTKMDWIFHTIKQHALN
Chain of PI3K (p110α/p85α) (h) (P27986 whole entry partner): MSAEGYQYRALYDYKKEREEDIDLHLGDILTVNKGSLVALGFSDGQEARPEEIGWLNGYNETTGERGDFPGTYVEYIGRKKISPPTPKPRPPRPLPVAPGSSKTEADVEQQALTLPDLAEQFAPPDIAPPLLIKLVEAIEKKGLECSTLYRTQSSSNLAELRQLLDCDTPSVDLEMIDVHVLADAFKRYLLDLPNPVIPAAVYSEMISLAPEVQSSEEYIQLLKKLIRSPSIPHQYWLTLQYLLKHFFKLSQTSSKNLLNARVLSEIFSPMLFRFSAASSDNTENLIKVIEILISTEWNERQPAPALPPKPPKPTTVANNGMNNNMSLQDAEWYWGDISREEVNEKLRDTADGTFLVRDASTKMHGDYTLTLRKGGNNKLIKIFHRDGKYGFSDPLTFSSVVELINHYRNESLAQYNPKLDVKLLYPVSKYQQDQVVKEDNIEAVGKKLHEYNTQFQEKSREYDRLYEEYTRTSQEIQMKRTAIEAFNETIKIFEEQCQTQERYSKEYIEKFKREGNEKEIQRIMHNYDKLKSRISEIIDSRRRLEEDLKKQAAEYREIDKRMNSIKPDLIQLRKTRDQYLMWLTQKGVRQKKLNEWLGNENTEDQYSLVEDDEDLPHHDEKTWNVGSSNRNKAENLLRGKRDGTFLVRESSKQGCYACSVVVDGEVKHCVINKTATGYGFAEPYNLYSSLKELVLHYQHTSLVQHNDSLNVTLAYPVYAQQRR
Experimental: as §1, with “(p110α/p85α)” for “(p110β/p85α)”, “phosphatidylinositol 4,5-bisphosphate” for “phosphatidylinositol-4,5-bisphosphate”, “ATP solution.” for “MgATP mix.”, “streptavidin allophycocyanin.” for “streptavidin-allophycocyanin.”
as §2

[7] = tested on: PI3K-γ (RAW264.7); experiment: p-AKT HTRF assay, PI3K-γ in RAW 264.7 cells stimulated with C5a; format: cell-based, murine; conditions: Mus musculus; RAW264.7 cells, C5a stimulation
Experimental: as §4

[8] = Pharmacokinetic profiles in rats; format: in vivo, rat
Experimental: The compounds disclosed herein are assessed in pharmacokinetic studies in mice, rats, dogs or monkeys. The compounds are administered as a water solution, 2% HPMC+1% TWEEN®80 in water solution, 5% DMSO+5% solutol in saline, 4% MC suspension or capsule. For the intravenous administration, the animals are generally given at 1 or 2 mg/kg dose. For the oral (p.o.) dosing, mice and rats are generally given 5 or 10 mg/kg dose, and dogs and monkeys are generally given 10 mg/kg dose. The blood samples (0.3 mL) are drawn at 0.25, 0.5, 1.0, 2.0, 3.0, 4.0, 6.0, 8.0, 12 and 24 h time points or 0.083, 0.25, 0.5, 1.0, 2.0, 4.0, 6.0, 8.0 and 24 h time points and centrifuged at 3,000 or 4000 rpm for 2 to 10 min. The plasma solutions are collected, stored at −20° C. or −70° C. until analyzed by LC/MS/MS as described above.

[9] = molecular target: hERG channels (Homo sapiens (Human), UniProt Q12809); experiment: hERG assay, automated QPatch procedure; format: cell-based
Chain of hERG channels (Q12809 whole entry): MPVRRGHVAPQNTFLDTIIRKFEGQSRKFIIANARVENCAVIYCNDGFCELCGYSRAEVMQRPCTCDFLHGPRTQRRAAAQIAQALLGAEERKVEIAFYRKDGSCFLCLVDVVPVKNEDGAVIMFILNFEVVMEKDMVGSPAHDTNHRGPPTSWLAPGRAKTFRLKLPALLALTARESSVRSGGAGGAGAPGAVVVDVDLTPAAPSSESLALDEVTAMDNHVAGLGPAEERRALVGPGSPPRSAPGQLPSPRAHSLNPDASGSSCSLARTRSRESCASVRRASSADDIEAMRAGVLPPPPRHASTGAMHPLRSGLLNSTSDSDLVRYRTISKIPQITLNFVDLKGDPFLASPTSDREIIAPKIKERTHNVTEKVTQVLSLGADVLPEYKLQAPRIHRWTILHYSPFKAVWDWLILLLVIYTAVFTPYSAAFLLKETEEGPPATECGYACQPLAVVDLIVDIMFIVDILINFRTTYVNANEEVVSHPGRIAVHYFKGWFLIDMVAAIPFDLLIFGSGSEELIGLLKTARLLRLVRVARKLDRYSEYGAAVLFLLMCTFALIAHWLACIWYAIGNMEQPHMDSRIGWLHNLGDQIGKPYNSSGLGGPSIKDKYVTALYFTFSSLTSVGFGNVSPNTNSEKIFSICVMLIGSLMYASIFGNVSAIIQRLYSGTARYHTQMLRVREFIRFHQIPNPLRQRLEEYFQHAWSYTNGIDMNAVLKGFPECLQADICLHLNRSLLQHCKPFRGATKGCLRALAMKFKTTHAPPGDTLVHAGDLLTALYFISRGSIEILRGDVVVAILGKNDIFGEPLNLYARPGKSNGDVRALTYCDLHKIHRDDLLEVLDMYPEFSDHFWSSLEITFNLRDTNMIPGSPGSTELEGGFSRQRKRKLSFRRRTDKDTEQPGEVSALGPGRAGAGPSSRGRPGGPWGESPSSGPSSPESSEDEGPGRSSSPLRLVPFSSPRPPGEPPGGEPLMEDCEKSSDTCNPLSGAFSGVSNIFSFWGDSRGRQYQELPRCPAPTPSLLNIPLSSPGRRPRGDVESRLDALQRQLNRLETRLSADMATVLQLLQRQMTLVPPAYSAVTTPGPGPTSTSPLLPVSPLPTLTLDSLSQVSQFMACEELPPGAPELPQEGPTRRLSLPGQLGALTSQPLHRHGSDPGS
Source text: Only stable cells with recording parameters above threshold were allowed to enter the drug application procedure.

Chain of PI3K (p110β/p85α) (h) (P42338 whole entry, the tested form may be a part): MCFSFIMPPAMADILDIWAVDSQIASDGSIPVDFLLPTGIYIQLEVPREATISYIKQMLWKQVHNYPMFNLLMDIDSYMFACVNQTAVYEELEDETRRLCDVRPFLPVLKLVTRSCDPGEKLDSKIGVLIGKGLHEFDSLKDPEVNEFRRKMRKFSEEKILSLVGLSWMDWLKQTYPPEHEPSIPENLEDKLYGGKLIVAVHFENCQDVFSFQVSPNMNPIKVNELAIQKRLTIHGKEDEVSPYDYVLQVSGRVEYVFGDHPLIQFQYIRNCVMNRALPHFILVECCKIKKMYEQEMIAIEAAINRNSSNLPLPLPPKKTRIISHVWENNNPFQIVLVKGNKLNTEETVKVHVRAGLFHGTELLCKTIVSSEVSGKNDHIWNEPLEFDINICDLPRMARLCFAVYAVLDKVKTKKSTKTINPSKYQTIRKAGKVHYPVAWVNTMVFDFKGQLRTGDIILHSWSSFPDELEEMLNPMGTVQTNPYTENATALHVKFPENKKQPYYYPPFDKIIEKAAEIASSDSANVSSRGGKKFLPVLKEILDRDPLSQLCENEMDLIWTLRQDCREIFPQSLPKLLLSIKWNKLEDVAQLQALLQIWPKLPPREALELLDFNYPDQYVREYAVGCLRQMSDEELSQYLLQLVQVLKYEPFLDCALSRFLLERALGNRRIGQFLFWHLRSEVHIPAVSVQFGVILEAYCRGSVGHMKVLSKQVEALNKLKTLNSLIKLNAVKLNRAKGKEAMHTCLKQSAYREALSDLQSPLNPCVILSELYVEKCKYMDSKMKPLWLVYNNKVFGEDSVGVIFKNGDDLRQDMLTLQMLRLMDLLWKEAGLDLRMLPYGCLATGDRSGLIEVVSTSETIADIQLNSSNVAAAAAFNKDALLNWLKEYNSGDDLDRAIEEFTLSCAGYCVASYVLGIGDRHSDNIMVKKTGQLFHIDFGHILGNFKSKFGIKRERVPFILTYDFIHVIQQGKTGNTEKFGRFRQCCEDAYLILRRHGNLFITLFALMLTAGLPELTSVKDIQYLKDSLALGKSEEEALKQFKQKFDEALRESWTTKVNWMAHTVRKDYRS
Chain of PI3K (p110β/p85α) (h) (P27986 whole entry partner, the tested form may be a part): as the sequence (P27986 whole entry partner) above

IC50 [1]: 160 nM | IC50 [2]: 300 nM | IC50 [3]: 318 nM | IC50 [4]: 70.3 nM | IC50 [5]: 310 nM | IC50 [6]: 770 nM | IC50 [7]: 128 nM | clearance ([8]; iv dosing 1 mg/kg): 1.50 L/h/kg | AUC(0-t) ([8]; rat, plasma, iv dosing 1 mg/kg): 671 ng·h/mL | half-life ([8]; rat, plasma, iv dosing 1 mg/kg): 54.6 min | Vd ([8]; rat, plasma, iv dosing 1 mg/kg, read-out: Vss): 1.68 L/kg | bioavailability ([8]; rat, plasma, oral bioavailability): 56.8%
Structure (SMILES): Cc1noc(-c2c(N)ncnc2N[C@@H](C)c2nc3cccc(C#CCO)c3c(=O)n2-c2ccccc2)n1 [Example 34, (S)-2-(1-((6-amino-5-(3-methyl-1,2,4-oxadiazol-5-yl)pyrimidin-4-yl)amino)ethyl)-5-(3-hydroxyprop-1-yn-1-yl)-3-phenylquinazolin-4(3H)-one]
IC50 [9]: > 30 µM
